# Like-named read-outs stand apart in the source and are kept apart here.
# How the values were obtained:
# CYP2C8 = target: T1, CYP2C8 (Homo sapiens, UniProt P10632); experiment: In vitro CYP inhibition studies in human liver microsomes using probe substrates; type: biochemical; details: for R value (FDA): R = 1 + (total Cmax/Ki); for R value (EMA): R = unbound Cmax/Ki
# T1 sequence (P10632 1-490): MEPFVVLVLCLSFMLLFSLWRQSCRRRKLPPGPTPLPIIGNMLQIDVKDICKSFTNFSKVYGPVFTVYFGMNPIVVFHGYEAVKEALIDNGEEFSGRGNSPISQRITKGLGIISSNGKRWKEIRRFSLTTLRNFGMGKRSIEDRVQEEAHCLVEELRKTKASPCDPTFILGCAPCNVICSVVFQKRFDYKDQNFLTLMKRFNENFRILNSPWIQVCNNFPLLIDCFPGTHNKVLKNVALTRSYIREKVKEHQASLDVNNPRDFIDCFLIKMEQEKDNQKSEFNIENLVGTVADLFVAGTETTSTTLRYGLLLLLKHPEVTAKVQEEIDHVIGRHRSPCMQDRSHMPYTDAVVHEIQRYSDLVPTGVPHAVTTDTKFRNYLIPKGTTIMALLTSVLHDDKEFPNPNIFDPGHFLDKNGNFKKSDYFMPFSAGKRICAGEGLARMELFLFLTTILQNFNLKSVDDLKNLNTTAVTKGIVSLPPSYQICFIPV
# CYP3A4 [1] = target: T2, CYP3A4 (Homo sapiens, UniProt P08684)
# T2 sequence (P08684 whole entry): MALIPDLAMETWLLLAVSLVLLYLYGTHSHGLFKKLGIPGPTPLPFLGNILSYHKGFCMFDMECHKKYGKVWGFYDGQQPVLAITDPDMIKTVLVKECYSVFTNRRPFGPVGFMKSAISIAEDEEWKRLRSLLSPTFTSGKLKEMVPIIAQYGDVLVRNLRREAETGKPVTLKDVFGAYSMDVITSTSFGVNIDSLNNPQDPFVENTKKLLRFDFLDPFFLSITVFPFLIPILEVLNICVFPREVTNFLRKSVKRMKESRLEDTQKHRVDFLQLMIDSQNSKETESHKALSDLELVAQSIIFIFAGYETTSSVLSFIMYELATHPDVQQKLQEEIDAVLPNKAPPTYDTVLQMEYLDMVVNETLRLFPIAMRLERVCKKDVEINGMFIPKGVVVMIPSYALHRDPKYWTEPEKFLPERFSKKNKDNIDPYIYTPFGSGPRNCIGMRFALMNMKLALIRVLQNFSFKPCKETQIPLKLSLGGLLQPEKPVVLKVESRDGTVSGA
# healthy female subjects = experiment: Safety and tolerability: adverse events; type: in vivo, human
# [2] = ASP8477 steady‐state plasma PK in the cocktail study; type: in vivo, human; details: for Ctrough: mean ± SD
# CYP2C19 [3] = target: T3, CYP2C19 (Homo sapiens, UniProt P33261)
# T3 sequence (P33261 whole entry): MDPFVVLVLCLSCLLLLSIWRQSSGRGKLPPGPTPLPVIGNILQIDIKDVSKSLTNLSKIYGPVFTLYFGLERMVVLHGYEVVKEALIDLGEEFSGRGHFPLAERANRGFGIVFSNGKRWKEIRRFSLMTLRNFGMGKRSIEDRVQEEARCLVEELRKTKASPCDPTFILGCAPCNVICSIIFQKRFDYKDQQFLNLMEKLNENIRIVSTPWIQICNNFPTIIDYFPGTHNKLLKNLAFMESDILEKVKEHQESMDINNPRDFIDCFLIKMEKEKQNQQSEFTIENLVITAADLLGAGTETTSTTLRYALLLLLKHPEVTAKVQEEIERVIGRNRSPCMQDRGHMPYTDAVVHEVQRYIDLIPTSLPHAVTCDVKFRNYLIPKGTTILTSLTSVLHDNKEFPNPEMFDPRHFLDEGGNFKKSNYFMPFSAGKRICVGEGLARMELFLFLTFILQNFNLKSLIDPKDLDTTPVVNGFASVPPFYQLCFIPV
# [4] = ref clinical studies, cited from earlier work
# CYP2D6 [5] = target: T4, CYP2D6 (Homo sapiens, UniProt P10635)
# T4 sequence (P10635 whole entry): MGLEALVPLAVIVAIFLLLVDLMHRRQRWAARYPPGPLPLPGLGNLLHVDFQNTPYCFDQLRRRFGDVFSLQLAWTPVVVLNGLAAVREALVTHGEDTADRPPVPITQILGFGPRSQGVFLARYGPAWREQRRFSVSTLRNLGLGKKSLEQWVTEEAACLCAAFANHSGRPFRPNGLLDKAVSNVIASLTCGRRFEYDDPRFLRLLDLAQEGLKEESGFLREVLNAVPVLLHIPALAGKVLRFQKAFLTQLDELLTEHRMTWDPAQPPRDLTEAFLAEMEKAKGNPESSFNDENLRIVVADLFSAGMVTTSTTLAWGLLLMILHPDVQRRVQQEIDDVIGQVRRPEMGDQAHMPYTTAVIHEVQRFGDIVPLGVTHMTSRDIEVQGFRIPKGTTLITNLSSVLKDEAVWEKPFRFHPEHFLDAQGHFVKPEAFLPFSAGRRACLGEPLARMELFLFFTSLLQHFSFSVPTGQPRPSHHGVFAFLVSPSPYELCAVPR
# CYP2C19 [6] = target: T3, CYP2C19; experiment: In vitro CYP inhibition studies in human liver microsomes using probe substrates; type: biochemical; details: for R value (FDA): R = 1 + (total Cmax/Ki); for R value (EMA): R = unbound Cmax/Ki
# CYP2D6 [7] = target: T4, CYP2D6; experiment: as above; type: biochemical; details: for R value (FDA): R = 1 + (total Cmax/Ki); for R value (EMA): R = unbound Cmax/Ki
# CYP3A4 [8] = target: T2, CYP3A4; experiment: as above; type: biochemical; details: for R value (FDA): R = 1 + (total Cmax/Ki); for R value (EMA): R = unbound Cmax/Ki
# CYP enzymes = experiment: Induction of CYP enzymes in vitro; type: in vitro ADME
# CYP2C9 [9] = target: T5, CYP2C9 (Homo sapiens, UniProt P11712); experiment: In vitro CYP inhibition studies in human liver microsomes using probe substrates; type: biochemical; details: for R value (FDA): R = 1 + (total Cmax/Ki); for R value (EMA): R = unbound Cmax/Ki
# T5 sequence (P11712 whole entry): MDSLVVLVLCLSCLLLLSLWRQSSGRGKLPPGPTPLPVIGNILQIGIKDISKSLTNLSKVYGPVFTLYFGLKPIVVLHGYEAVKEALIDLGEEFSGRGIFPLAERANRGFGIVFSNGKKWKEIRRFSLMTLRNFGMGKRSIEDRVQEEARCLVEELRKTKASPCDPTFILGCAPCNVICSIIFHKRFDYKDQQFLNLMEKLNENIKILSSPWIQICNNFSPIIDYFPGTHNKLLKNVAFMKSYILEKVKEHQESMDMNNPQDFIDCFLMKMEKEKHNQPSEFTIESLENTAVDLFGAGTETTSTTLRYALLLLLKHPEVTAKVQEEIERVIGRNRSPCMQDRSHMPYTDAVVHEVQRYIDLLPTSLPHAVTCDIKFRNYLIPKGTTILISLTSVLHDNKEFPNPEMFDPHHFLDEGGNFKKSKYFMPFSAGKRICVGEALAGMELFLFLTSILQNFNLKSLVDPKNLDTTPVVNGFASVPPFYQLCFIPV
# CYP2C9 [10] = target: T5, CYP2C9; experiment: Inje cocktail DDI study: losartan and EXP‐3174 PK, assessment of CYP2C9 activity
# [11] = Fraction of unbound ASP8477 in humans; type: in vitro ADME, human; details: independent of the clinical concentration range
# [12] = female, human, plasma, oral, 20 mg
# [13] = female, human, plasma, oral, 60 mg
# [14] = female, human, plasma, oral, 100 mg
structure (smiles),measurement,setting,value
"O=C(Nc1ccccc1)C1CCN(C(=O)Oc2cccnc2)CC1 [ASP8477, 3‐pyridyl 4‐(phenylcarbamoyl)piperidine‐1‐carboxylate]",Ki,CYP2C8,15 µM
same,R value (FDA),CYP2C8; ASP8477 20 mg QD,1.074
same,R value (EMA),CYP2C8; ASP8477 20 mg QD,0.011
same,R value (FDA),CYP2C8; ASP8477 60 mg QD,1.385
same,R value (EMA),CYP2C8; ASP8477 60 mg QD,0.06
same,"in vivo CYP inhibition class (FDA guidance, AUC of probe substrate)",CYP3A4 [1]; 60 mg dose level,weak (1.25‐ to <2‐fold)
same,"in vivo CYP inhibition class (FDA guidance, AUC of probe substrate)",CYP3A4 [1]; 100 mg dose level,weak (1.25‐ to <2‐fold)
same,overall in vivo inhibitor class,CYP3A4 [1]; doses from 20 to 100 mg,weak (1.25‐ to <2‐fold)
same,tolerability,"healthy female subjects; ASP8477 in conjunction with cocktail probes, healthy female subjects",generally well tolerated
same,fatigue of moderate intensity (most frequent moderate AE),healthy female subjects; all dose levels,5 subjects
same,"discontinuation due to an AE (emotional lability, moderate)","healthy female subjects; day 15, at the 60 mg level",1 subject
same,AEs considered possibly or probably related to study drug,healthy female subjects; following 20 mg ASP8477,11 subjects
same,AEs considered possibly or probably related to study drug,healthy female subjects; following 60 mg ASP8477,11 subjects
same,AEs considered possibly or probably related to study drug,healthy female subjects; following 100 mg ASP8477,13 subjects
same,serious AEs or deaths,healthy female subjects; whole study,No serious AEs or deaths
same,dose proportionality of Cmax and AUCtau,"[2]; 20, 60, 100 mg once daily",more than dose‐proportional
same,Ctrough,"[2]; Day 14, 60 mg ASP8477 qd",91 ± 110 ng/mL
same,Ctrough,"[2]; Day 23, 100 mg ASP8477 qd",740 ± 640 ng/mL
same,AUC,[2]; [12],1600 ± 710 ng·h/mL
same,Cmax,[2]; [12],400 ± 120 ng/mL
same,Tmax,[2]; [12],1 h
same,Cmax,[2]; [13],2000 ± 490 ng/mL
same,Tmax,[2]; [13],2 h
same,Cmax,[2]; [14],4200 ± 1200 ng/mL
same,Tmax,[2]; [14],2 h
same,"in vivo CYP inhibition class (FDA guidance, AUC of probe substrate)",CYP2C19 [3]; 20 mg dose level,moderate (2‐ to <5‐fold)
same,"in vivo CYP inhibition class (FDA guidance, AUC of probe substrate)",CYP2C19 [3]; 60 mg dose level,moderate (2‐ to <5‐fold)
same,"in vivo CYP inhibition class (FDA guidance, AUC of probe substrate)",CYP2C19 [3]; 100 mg dose level,strong (≥5‐fold)
same,overall in vivo inhibitor class,CYP2C19 [3]; doses from 20 to 100 mg,moderate to strong
same,steady state achieved (mean trough concentration‐time profiles),[4]; 20 mg once daily,1 days
same,steady state achieved (mean trough concentration‐time profiles),[4]; 60 mg once daily,3 days
same,steady state achieved (mean trough concentration‐time profiles),[4]; 100 mg once daily,10 days
same,dose excreted in urine as unchanged drug,[4],Approximately 1%
same,"in vivo CYP inhibition class (FDA guidance, AUC of probe substrate)",CYP2D6 [5]; 20 mg dose level,weak (1.25‐ to <2‐fold)
same,"in vivo CYP inhibition class (FDA guidance, AUC of probe substrate)",CYP2D6 [5]; 60 mg dose level,moderate (2‐ to <5‐fold)
same,"in vivo CYP inhibition class (FDA guidance, AUC of probe substrate)",CYP2D6 [5]; 100 mg dose level,strong (≥5‐fold)
same,overall in vivo inhibitor class,CYP2D6 [5]; doses from 20 to 100 mg,weak to strong
same,Ki,CYP2C19 [6],1 µM
same,R value (FDA),CYP2C19 [6]; ASP8477 20 mg QD,2.116
same,R value (EMA),CYP2C19 [6]; ASP8477 20 mg QD,0.167
same,R value (FDA),CYP2C19 [6]; ASP8477 60 mg QD,6.781
same,R value (EMA),CYP2C19 [6]; ASP8477 60 mg QD,0.87
same,Ki,CYP2D6 [7],9.8 µM
same,R value (FDA),CYP2D6 [7]; ASP8477 20 mg QD,1.114
same,R value (EMA),CYP2D6 [7]; ASP8477 20 mg QD,0.017
same,R value (FDA),CYP2D6 [7]; ASP8477 60 mg QD,1.590
same,R value (EMA),CYP2D6 [7]; ASP8477 60 mg QD,0.09
same,Ki,CYP3A4 [8],18 µM
same,R value (FDA),CYP3A4 [8]; ASP8477 20 mg QD,1.062
same,R value (EMA),CYP3A4 [8]; ASP8477 20 mg QD,0.009
same,R value (FDA),CYP3A4 [8]; ASP8477 60 mg QD,1.321
same,R value (EMA),CYP3A4 [8]; ASP8477 60 mg QD,0.05
same,effect on the induction of CYP enzymes,CYP enzymes,No clinically relevant effect
same,Ki,CYP2C9 [9],8 µM
same,R value (FDA),CYP2C9 [9]; ASP8477 20 mg QD,1.140
same,R value (EMA),CYP2C9 [9]; ASP8477 20 mg QD,0.021
same,R value (FDA),CYP2C9 [9]; ASP8477 60 mg QD,1.723
same,R value (EMA),CYP2C9 [9]; ASP8477 60 mg QD,0.11
same,"in vivo CYP inhibition class (FDA guidance, AUC of probe substrate)",CYP2C9 [10]; 20 mg dose level,no effect
same,"in vivo CYP inhibition class (FDA guidance, AUC of probe substrate)",CYP2C9 [10]; 60 mg dose level,weak (1.25‐ to <2‐fold)
same,"in vivo CYP inhibition class (FDA guidance, AUC of probe substrate)",CYP2C9 [10]; 100 mg dose level,weak (1.25‐ to <2‐fold)
same,overall in vivo inhibitor class,CYP2C9 [10]; doses from 20 to 100 mg,weak (1.25‐ to <2‐fold)
same,fraction of unbound ASP8477,[11],15%
